Measured values as given in patent publication US20260184687A1, “DIHYDROINDENE DERIVATIVES AS MALT1 INHIBITORS” (C4X Discovery Limited, priority 2022, published 2026).

system: IL-2 release from stimulated Jurkat cells; assay: Human IL-2 Release Phenotypic Assay (Assay 3); assay type: cell-based; conditions: Homo sapiens, Jurkat, 48 h, Jurkat cells (clone E6-1), 200 ng/mL PMA + 300 ng/mL ionomycin, IL-2 by ELISA
Protocol: This assay measured the inhibition by MALT1 inhibitors of the IL-2 release from stimulated Jurkat cells, a human immortalized T lymphocyte cell line. IL-2 production from Jurkat cells is regulated by activation of NFκB signalling, which is in turn regulated by MALT1 protease activity.
Jurkat cells (clone E6-1, ATCC) were cultured in RPMI1640 supplemented with 10% (v/v) FBS and 1% (v/v) penicillin/streptomycin (100× liquid stocks). Cells were seeded in 96-well white tissue culture-treated plates (Perkin Elmer) at 50 000 cells/well and incubated overnight at 37° C., 5% CO2. Test compounds in DMSO at half-log dilutions were added to the cells and incubated for 30 mins. Final DMSO concentration was 0.5%. Cells were then stimulated with 200 ng/mL PMA+300 ng/mL ionomycin and incubated for 48 hours. […] IC50 values were calculated using GraphPad Prism using 4-parameter non-linear regression curve fit.

`CC(=O)N1C[C@H](O)C[C@H]1C(=O)N(C)[C@@H](c1ccc(N[C@H]2Cc3ccccc3C2(C)C)cn1)C(F)(F)F` [Example 183, (2S,4R)-1-Acetyl-N—((S)-1-(5-(((S)-1,1-dimethyl-2,3-dihydro-1H-inden-2-yl)amino)pyridin-2-yl)-2,2,2-trifluoroethyl)-4-hydroxy-N-methylpyrrolidine-2-carboxamide] and `CC(=O)N1CC[C@@H](C(=O)N(C)[C@@H](c2ccc(N[C@H]3Cc4ccccc4C3(C)C)cn2)C(F)(F)F)C1` [Example 192, (R)-1-Acetyl-N—((S)-1-(5-(((S)-1,1-dimethyl-2,3-dihydro-1H-inden-2-yl)amino)pyridin-2-yl)-2,2,2-trifluoroethyl)-N-methylpyrrolidine-3-carboxamide] are within 1.5-fold of each other in IC50: 510 nM for the first, 440 nM for the second.

`CC(=O)N[C@H]1C[C@H](C(=O)N(C)[C@@H](c2ccc(N[C@H]3Cc4ccccc4C3(C)C)cn2)C(F)(F)F)C1` [Example 186, (1,3-trans)-3-Acetamido-N—((S)-1-(5-(((S)-1,1-dimethyl-2,3-dihydro-1H-inden-2-yl)amino)pyridin-2-yl)-2,2,2-trifluoroethyl)-N-methylcyclobutane-1-carboxamide] and `CNC(=O)[C@H]1C[C@@H](C(=O)N(C)[C@@H](c2ccc(N[C@H]3Cc4ccccc4C3(C)C)cn2)C(F)(F)F)C1` [Example 240, (1,3-cis)-N^1—((S)-1-(5-(((S)-1,1-Dimethyl-2,3-dihydro-1H-inden-2-yl)amino)pyridin-2-yl)-2,2,2-trifluoroethyl)-N^1,N^3-dimethylcyclobutane-1,3-dicarboxamide] are within 1.5-fold of each other in IC50: 460 nM for the first, 330 nM for the second.

Compared with `CN(C(=O)CC1CCS(=O)(=O)CC1)[C@@H](c1ccc(N[C@H]2Cc3ccccc3C2(C)C)cn1)C(F)(F)F` [Example 196, N—((S)-1-(5-(((S)-1,1-Dimethyl-2,3-dihydro-1H-inden-2-yl)amino)pyridin-2-yl)-2,2,2-trifluoroethyl)-2-(1,1-dioxidotetrahydro-2H-thiopyran-4-yl)-N-methylacetamide], `CN(C(=O)C1CCN(S(C)(=O)=O)CC1)[C@@H](c1ccc(N[C@H]2Cc3ccccc3C2(C)C)cn1)C(F)(F)F` [Example 223, N—((S)-1-(5-(((S)-1,1-Dimethyl-2,3-dihydro-1H-inden-2-yl)amino)pyridin-2-yl)-2,2,2-trifluoroethyl)-N-methyl-1-(methylsulfonyl)piperidine-4-carboxamide] is 5.7-fold lower in IC50: 860 nM for the first, 150 nM for the second. The second is the more potent here.

`CN(C(=O)[C@@H]1CCC(=O)NC1)[C@@H](c1ccc(N[C@H]2Cc3ccccc3C2(C)C)nc1)C(F)(F)F` [Example 218, (R)—N—((S)-1-(6-(((S)-1,1-dimethyl-2,3-dihydro-1H-inden-2-yl)amino)pyridin-3-yl)-2,2,2-trifluoroethyl)-N-methyl-6-oxopiperidine-3-carboxamide] and `CN(C(=O)[C@H]1CCC(=O)NC1)[C@@H](c1ccc(N[C@H]2Cc3ccccc3C2(C)C)nc1)C(F)(F)F` [Example 219] are within 1.5-fold of each other in IC50: 430 nM for the first, 330 nM for the second.

`CN(C(=O)[C@H]1C[C@H](NS(C)(=O)=O)C1)[C@@H](c1ccc(N[C@H]2Cc3ccccc3C2(C)C)cn1)C(F)(F)F` [Example 222, (1,3-trans)-N—((S)-1-(5-(((S)-1,1-Dimethyl-2,3-dihydro-1H-inden-2-yl)amino)pyridin-2-yl)-2,2,2-trifluoroethyl)-N-methyl-3-(methylsulfonamido)cyclobutane-1-carboxamide] and `CC(=O)N1CCC(C(=O)N(C)[C@@H](c2ccc(N[C@H]3Cc4ccccc4C3(C)C)cn2)C(F)(F)F)CC1` [Example 224, 1-Acetyl-N—((S)-1-(5-(((S)-1,1-dimethyl-2,3-dihydro-1H-inden-2-yl)amino)pyridin-2-yl)-2,2,2-trifluoroethyl)-N-methylpiperidine-4-carboxamide] are within 1.5-fold of each other in IC50: 260 nM for the first, 200 nM for the second.
